Experimental data: patent US5580953A, “Amylin antagonist peptides and uses therefor” (Amylin Pharmaceuticals, Inc., priority 1991, dated 1996)
No end group written: not given here.

Key:
[1] = tested on: insulin-stimulated glycogen synthesis in soleus muscle; test: rat soleus muscle assay; format: cell-based; conditions: for amylin agonist activity as measured by the soleus muscle assay: inhibition of insulin-stimulated glycogen synthesis; for amylin antagonist activity in the soleus muscle assay: resumption of insulin-stimulated glycogen synthesis in the presence of 100 nM rat amylin
Excerpt: Several assays have been developed to measure amylin activity and to evaluate new compounds. A receptor binding assay as described herein may be used to screen for or to identify compounds which bind to amylin receptors and which may, therefore, be candidate amylin agonists and antagonists. The rat soleus muscle assay may be used as a secondary procedure to screen for or to evaluate and differentiate between amylin agonists and amylin antagonists. In the soleus muscle assay, amylin and amylin agonists inhibit insulin-stimulated glycogenesis. Amylin antagonists counteract this amylin inhibition which results in the recovery of insulin-stimulated glycogenesis.
Assays of biological activity of amylin preparations in the soleus muscle are performed using previously described methods (Leighton, B. and Cooper, G. J. S. (1988) Nature 335: 632-635; Cooper, G. J. S., Leighton, B., Dimitriadis, G. D., Parry-Billings, M., Kowalchuk, J. M., Howland, K., Rothbard, J. B., Willis, A. C. and Reid, K. B. M. (1988) Proc. Natl. Acad. Sci. USA 85: 7763-7766.) In summary, amylin agonist activity is assessed by measuring the inhibition of insulin-stimulated glycogen synthesis in soleus muscle in response to an amylin agonist. Amylin antagonist activity is assessed by measuring the resumption of insulin-stimulated glycogen synthesis in the presence of 100 nM rat amylin and an amylin antagonist. Concentrations of peptide dissolved in carrier-free buffers are determined by quantitative amino acid analysis, as described therein. The ability of compounds to act as antagonists in this assay is determined by measuring IC50 values. Standard errors are determined by fitting of sigmoidal dose response curves using a four parameter logistic equation (De Lean, A., Munson, P. J., Guardabasso, V. and Rodbard, D. (1988) ALLFIT, Version 2.7, National Institute of Child Health and Human Development, N.I.H. Bethesda, Md., 1 diskette).

[2] = tested on: insulin resistance caused by administered amylin; test: infusion into rats, reversal of amylin-induced insulin resistance; format: in vivo; conditions: infusions into rats
Excerpt: A number of amylin antagonists have been characterized using these biological assays. The N-terminally deleted peptides ^8-37 Peptide A, ^8-37 Peptide B and ^8-32 Peptide C, were all found to compete with amylin in the receptor binding assay. […] ID. NO. 195]; ^9-37 Peptide B [SEQ. ID. NO. 27]; ^11-37 Peptide B [SEQ. ID. NO. 29]; ^18-37 Peptide B [SEQ. ID. NO. 36]; ^26 Asp^27 Val^29 Ala^8-32 Peptide C [SEQ. ID. NO. 196]; ^30 Asn^32 Tyr^8-32 Peptide C [SEQ. ID. NO. 197]; Ac-^9-32Peptide C [SEQ. ID. NO. 48]; Ac-^30 Asn^32 Tyr^9-32 Peptide C [SEQ. ID. NO. 198]; ^9-23 Peptide C^29-37 Peptide A [SEQ. ID. NO. 199]; Ac-^9-23 Peptide C^29-37 Peptide A; Adm-^9-23 Peptide C^29-37 Peptide A; Ac-^11 Arg^15 Leu^18 Arg^30 Asn^32 Tyr^9-32 Peptide C [SEQ. ID. NO. 200]; Ac-^11 Arg^18 Arg^30 Asn^32 Tyr^9-32 Peptide C [SEQ. ID. NO. 201]; Ac-^18 Arg^30 Asn^32 Tyr^9-32 Peptide C [SEQ. ID. NO. 202]. Infusions of ^8-37 Peptide B [SEQ. ID. NO. 26], ^8-32 Peptide C [SEQ. ID. NO. 47], and Ac-^11 Arg ^18 Arg^30 […] Tyr^9-32 Peptide C [SEQ. ID. NO.

Substance	amylin agonist activity as measured by the soleus muscle assay [1]	amylin antagonist activity in the soleus muscle assay [1]	reversal of insulin resistance caused by administered amylin [2]
VLGKLSQELHKLQTYPRTNTGSGTP-NH2 [^8-32 Peptide C]	negligible agonist activity	act as amylin antagonists	reverse the insulin resistance caused by administered amylin
^8-37 Peptide B (VTHRLAGLLSRSGGVVKNNFVPTNVGSKAF) [ID; NO; 26]	negligible agonist activity	act as amylin antagonists	reverse the insulin resistance caused by administered amylin
